These results are taken from US11739090B2, “Substituted pyrazlo[3,4-c]pyridines as selective BTK kinase inhibitors” (JUMBO DRUG BANK CO., LTD., priority 2019, dated 2023).

What all share (format): biochemical
One assay has as its target ITK (Homo sapiens (Human), UniProt Q08881). Briefly: ITK kinase test (33P-ATP filter binding). The settings on record: for The ratio of the activities of ITK and BTK: ITK IC50 / BTK IC50 (second figure of the cell); for IC50: final ATP 5 μM. The method, then:
(§1) Experimental Example 2: EGFR, ITK and TEC Kinase Test
(§2) buffer conditions: 20 mM HEPES (pH 7.5), 10 mM MgCl2, 1 mM EGTA, 0.02% Brij35, 0.02 mg/mL BSA, 0.1 mm Na3VO4, 2 mm DTT, 1% DMSO.
(§3) 2.1. Preparing an indicator substrate in a freshly prepared reaction buffer
(§4) 2.2. Delivering the desired cofactor to the above substrate solution
(§5) 2.3. Delivering the indicated kinase to the substrate solution and gently mixing same
(§6) 2.4. Delivering the compounds in DMSO to the kinase reaction mixture using acoustic technology (Echo550)
(§7) 2.5. Initiating the reaction (final concentration of ATP: 2 μM, 5 μM and 5 μM respectively) by delivering ^33P-ATP (final specific activity: 0.01 μci/μL) to the reaction mixture
(§8) 2.6. Incubating the kinase reaction at room temperature for 120 minutes
(§9) 2.7. Recording the reaction on P81 ion exchange paper (Whatman #3698-915)
(§10) 2.8. Washing the filter widely with 0.75% phosphoric acid
(§11) 2.9. Measuring the radioactive phosphorylated substrate remaining on the filter paper.
(§12) 3. Data analysis: the kinase activity data is expressed as the percentage of the remaining kinase activity in a test sample compared to a reaction with a carrier (dimethyl sulfoxide), and IC50 values and curve fitting are obtained using Prism4 software (GraphPad).

In the next assay the target is EGFR (Homo sapiens (Human), UniProt P00533). The assay is described as follows: EGFR kinase test (33P-ATP filter binding). The settings on record: for The ratio of the activities of EGFR and BTK: EGFR IC50 / BTK IC50 (first figure of the cell); for IC50: final ATP 2 μM, 120 minutes at room temperature. As for the experimental part: as §1, §2, §3, §4, §5, §6, §7, §8, §9, §10, §11, §12
EGFR, sequence (P00533 25-1210): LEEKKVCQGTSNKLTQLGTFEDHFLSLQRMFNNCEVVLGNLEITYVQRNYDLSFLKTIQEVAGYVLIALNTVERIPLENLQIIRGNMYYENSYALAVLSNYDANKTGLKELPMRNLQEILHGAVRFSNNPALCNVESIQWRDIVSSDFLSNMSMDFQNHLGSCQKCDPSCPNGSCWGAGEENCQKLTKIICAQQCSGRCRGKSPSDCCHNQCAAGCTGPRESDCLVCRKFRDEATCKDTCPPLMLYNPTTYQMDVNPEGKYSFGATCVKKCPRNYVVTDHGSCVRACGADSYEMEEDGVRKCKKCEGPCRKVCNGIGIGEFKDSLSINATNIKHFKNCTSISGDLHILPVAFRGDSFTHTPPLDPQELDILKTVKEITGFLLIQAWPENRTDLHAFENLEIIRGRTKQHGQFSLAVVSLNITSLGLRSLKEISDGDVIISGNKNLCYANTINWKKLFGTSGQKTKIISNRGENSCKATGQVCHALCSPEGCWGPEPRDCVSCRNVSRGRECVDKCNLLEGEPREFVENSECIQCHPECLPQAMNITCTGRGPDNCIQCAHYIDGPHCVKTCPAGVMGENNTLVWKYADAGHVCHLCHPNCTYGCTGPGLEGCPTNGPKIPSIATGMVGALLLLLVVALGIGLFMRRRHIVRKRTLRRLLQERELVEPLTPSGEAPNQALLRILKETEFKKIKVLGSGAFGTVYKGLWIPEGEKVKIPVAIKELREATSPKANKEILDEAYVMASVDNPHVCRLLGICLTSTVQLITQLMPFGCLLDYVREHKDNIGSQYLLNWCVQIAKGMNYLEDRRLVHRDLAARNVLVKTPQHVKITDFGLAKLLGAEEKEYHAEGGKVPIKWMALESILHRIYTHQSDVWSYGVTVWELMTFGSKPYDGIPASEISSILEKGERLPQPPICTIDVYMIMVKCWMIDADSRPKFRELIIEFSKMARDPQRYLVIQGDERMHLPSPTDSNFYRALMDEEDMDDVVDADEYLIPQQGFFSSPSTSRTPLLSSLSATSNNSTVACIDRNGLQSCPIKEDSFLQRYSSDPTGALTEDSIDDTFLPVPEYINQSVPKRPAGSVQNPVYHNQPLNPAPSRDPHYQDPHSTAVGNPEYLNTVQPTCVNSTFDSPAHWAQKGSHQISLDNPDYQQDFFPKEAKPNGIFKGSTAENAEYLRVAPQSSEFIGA

The target in another assay is TEC (Homo sapiens (Human), UniProt P42680). Briefly: TEC kinase test (33P-ATP filter binding). Particulars: for The ratio of the activities of TEC and BTK: TEC IC50 / BTK IC50 (third figure of the cell); for IC50: final ATP 5 μM, 120 minutes at room temperature. As for the experimental part:
as §1, §2, §3, §4, §5, §6, §7, §8, §9, §10, §11, §12

The next assay addresses BTK (Homo sapiens (Human), UniProt Q06187). Briefly: BTK kinase test (33P-ATP filter binding). Particulars: final ATP 5 μM. As for the experimental part:
Experimental Example 1: BTK Kinase Test […]
as §2, §3, §4, §5, §6
2.5. Initiating the reaction (final concentration of ATP: 5 μM) by delivering ^33P-ATP (final specific activity: 0.01 μci/μL) to the reaction mixture
as §8, §9, §10
2.9. Measuring the radioactive phosphorylated substrate remaining on the filter paper. […]
the kinase activity data is expressed as the percentage of the remaining kinase activity in a test sample compared to a reaction with a carrier (dimethyl sulfoxide), and IC50 values and curve fitting are obtained using Prism4 software (GraphPad).

Where [1] appears, read: Table 1, 120 minutes at room temperature.

The IC50 is the concentration needed to halve the response being measured. Lower therefore signals greater potency in that assay.

TEC, sequence (P42680 whole entry): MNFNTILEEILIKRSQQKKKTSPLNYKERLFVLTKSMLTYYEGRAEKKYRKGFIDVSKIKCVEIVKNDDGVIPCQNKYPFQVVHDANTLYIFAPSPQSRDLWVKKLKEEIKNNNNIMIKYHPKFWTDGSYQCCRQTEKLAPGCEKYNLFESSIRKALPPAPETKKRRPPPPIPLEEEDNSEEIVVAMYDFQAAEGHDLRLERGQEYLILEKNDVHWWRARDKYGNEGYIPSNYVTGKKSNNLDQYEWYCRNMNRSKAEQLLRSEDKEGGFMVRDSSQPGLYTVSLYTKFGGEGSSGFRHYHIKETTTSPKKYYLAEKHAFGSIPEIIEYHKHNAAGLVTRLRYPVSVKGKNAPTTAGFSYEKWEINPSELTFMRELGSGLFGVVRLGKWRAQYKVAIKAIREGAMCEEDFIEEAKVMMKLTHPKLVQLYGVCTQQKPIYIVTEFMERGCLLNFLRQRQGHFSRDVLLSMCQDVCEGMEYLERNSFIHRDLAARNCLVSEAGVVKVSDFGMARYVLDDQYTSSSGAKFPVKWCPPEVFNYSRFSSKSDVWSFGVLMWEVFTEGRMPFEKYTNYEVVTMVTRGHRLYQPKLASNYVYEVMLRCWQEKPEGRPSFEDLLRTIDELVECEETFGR
ITK, sequence (Q08881 whole entry): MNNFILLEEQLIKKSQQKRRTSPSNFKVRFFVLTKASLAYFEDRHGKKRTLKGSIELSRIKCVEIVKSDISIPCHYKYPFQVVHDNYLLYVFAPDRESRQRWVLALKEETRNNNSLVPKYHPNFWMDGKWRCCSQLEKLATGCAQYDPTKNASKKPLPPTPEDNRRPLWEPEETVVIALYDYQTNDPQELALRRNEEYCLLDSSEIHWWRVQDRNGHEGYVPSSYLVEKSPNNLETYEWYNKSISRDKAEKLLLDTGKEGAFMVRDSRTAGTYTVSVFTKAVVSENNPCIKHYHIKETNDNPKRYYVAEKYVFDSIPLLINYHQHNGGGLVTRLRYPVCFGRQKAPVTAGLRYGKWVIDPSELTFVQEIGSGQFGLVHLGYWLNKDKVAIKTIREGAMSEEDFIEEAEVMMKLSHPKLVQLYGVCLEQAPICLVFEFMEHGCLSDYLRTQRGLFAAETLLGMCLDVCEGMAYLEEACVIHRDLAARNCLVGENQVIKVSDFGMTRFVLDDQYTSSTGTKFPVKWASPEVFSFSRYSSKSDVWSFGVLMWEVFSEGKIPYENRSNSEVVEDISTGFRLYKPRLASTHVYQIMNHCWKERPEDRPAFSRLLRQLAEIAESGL
BTK, sequence (Q06187 whole entry): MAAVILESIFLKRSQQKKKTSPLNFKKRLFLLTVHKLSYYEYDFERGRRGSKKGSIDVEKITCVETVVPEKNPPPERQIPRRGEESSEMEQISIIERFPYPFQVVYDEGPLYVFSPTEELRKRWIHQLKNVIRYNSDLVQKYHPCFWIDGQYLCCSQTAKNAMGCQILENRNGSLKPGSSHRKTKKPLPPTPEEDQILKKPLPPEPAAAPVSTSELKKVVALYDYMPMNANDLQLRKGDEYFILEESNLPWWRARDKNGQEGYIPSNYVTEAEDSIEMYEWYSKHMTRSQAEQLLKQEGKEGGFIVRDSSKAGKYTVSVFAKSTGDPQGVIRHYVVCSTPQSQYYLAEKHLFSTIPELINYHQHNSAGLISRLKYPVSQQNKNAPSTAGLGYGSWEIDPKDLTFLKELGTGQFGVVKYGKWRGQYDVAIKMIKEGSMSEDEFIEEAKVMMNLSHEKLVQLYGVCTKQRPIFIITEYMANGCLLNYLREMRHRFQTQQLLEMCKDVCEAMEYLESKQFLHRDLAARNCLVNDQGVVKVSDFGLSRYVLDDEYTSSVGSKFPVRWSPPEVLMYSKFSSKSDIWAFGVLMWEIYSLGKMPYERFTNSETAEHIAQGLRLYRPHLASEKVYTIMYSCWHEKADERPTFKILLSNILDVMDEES

With `C=CC(=O)N1CCC[C@@H](c2nn(-c3ccc(Oc4cc(F)cc(F)c4F)cc3)c3cncc(F)c23)C1` (single isomer, unassigned) [Compound 4A], at ITK, the “The ratio of the activities of ITK and BTK” value is greater than 909 fold. Moreover, the IC50 on ITK (unit μM) is greater than 10 µM; on EGFR, 2.02 µM; on TEC, 0.169 µM; at BTK (setting [1]), 0.011 µM; on BTK (Table 2 comparison) it was 0.011 µM. For the same compound, the “The ratio of the activities of EGFR and BTK” value at EGFR was 183 fold. In addition, at TEC, the “The ratio of the activities of TEC and BTK” value is “fold, 15-fold”.

On to `C=CC(=O)N1CCC[C@H](c2nn(-c3ccc(Oc4cc(F)cc(F)c4F)cc3)c3cncc(F)c23)C1` (single isomer, unassigned) [Compound 4B], for which the IC50 at BTK (setting [1]) is 0.0981 µM.

Compound `C=CC(=O)N1CCC[C@@H](c2nn(-c3ccc(Oc4cccc(F)c4F)cc3)c3cncc(F)c23)C1` (single isomer, unassigned) [Compound 5A] yielded an IC50 on BTK (setting [1]) of 0.0318 µM.

On to `C=CC(=O)N1CCO[C@@H](c2nn(-c3ccc(Oc4c(F)cccc4F)cc3)c3cncc(F)c23)C1` [Compound 3A], for which, on BTK (setting [1]), the 50% inhibitory concentration (IC50) came to 0.00958 µM.

For `C=CC(=O)N1CCO[C@H](c2nn(-c3ccc(Oc4c(F)cccc4F)cc3)c3cncc(F)c23)C1` [Compound 3B], the 50% inhibitory concentration (IC50) on BTK (setting [1]) was 0.0027 µM.

Take `C=CC(=O)N1CCC[C@@H](c2nn(-c3ccc(Oc4cc(F)ccc4F)cc3)c3cncc(F)c23)C1` [Compound 6A]: on ITK, the “The ratio of the activities of ITK and BTK” value worked out at 764 fold. The IC50 at ITK (120 minutes at room temperature) came to 7.32 µM; on EGFR, 0.812 µM; on TEC, 0.0432 µM; at BTK (setting [1]) it was 0.00958 µM; at BTK (Table 2 comparison), 0.00958 µM. Further, the “The ratio of the activities of EGFR and BTK” value at EGFR stood at 84 fold. Moreover, the “The ratio of the activities of TEC and BTK” value on TEC is recorded as 4-fold.

In the case of `C=CC(=O)N1CCC[C@H](c2nn(-c3ccc(Oc4cc(F)ccc4F)cc3)c3cncc(F)c23)C1` [Compound 6B], on BTK (setting [1]), the IC50 was 0.14 µM.
